Source: the NIST ThermoML archive (doi:10.1016/j.jct.2013.01.006)
± gives the expanded uncertainty stated by the source.

Conditions: Liquid, Vibrating tube method

F/C=C/C(F)(F)F [trans-1,3,3,3-tetrafluoropropene]
Conditions	mass density [kg/m3]
283.55 K, 99990 kPa	1403.02 ± 1.8
283.56 K, 30000 kPa	1295.8 ± 0.59
283.56 K, 40000 kPa	1316.15 ± 0.69
283.56 K, 50000 kPa	1334.15 ± 0.82
283.56 K, 60000 kPa	1350.35 ± 0.99
283.56 K, 69990 kPa	1365.2 ± 1.2
283.56 K, 79990 kPa	1378.71 ± 1.4
283.56 K, 90000 kPa	1391.26 ± 1.6
283.57 K, 1000 kPa	1211.68 ± 0.52
283.57 K, 3000 kPa	1219.58 ± 0.5
283.57 K, 5000 kPa	1227.04 ± 0.49
283.57 K, 10000 kPa	1243.89 ± 0.48
283.57 K, 15000 kPa	1258.79 ± 0.48
283.57 K, 20000 kPa	1272.23 ± 0.51
283.57 K, 25000 kPa	1284.48 ± 0.55
293.41 K, 1000 kPa	1180.6 ± 0.55
293.41 K, 3000 kPa	1189.81 ± 0.53
293.41 K, 5000 kPa	1198.39 ± 0.51
293.41 K, 10000 kPa	1217.4 ± 0.49
293.41 K, 15000 kPa	1234.07 ± 0.49
293.41 K, 20000 kPa	1248.82 ± 0.5
293.41 K, 25000 kPa	1262.23 ± 0.53
293.41 K, 30000 kPa	1274.5 ± 0.57
293.41 K, 40000 kPa	1296.38 ± 0.67
293.41 K, 50000 kPa	1315.5 ± 0.79
293.41 K, 60000 kPa	1332.69 ± 0.94
293.41 K, 69990 kPa	1348.45 ± 1.1
293.41 K, 79990 kPa	1362.63 ± 1.3
293.41 K, 100010 kPa	1387.95 ± 1.7
293.42 K, 90000 kPa	1375.74 ± 1.5
303.38 K, 1000 kPa	1149.74 ± 0.65
303.38 K, 3000 kPa	1160.58 ± 0.59
303.39 K, 5000 kPa	1170.47 ± 0.55
303.39 K, 10000 kPa	1192.27 ± 0.51
303.39 K, 15000 kPa	1210.87 ± 0.5
303.39 K, 20000 kPa	1227.2 ± 0.51
303.39 K, 25000 kPa	1241.85 ± 0.52
303.39 K, 30000 kPa	1255.15 ± 0.56
303.39 K, 40000 kPa	1278.68 ± 0.64
303.39 K, 60000 kPa	1317.3 ± 0.9
303.4 K, 50000 kPa	1299.13 ± 0.76
303.4 K, 70000 kPa	1333.74 ± 1.1
303.4 K, 80010 kPa	1348.59 ± 1.3
303.4 K, 90000 kPa	1362.33 ± 1.5
303.4 K, 100000 kPa	1375.04 ± 1.6
313.33 K, 1000 kPa	1112.39 ± 0.71
313.33 K, 3000 kPa	1125.51 ± 0.65
313.34 K, 5000 kPa	1137.25 ± 0.6
313.34 K, 10000 kPa	1162.32 ± 0.54
313.35 K, 15000 kPa	1183.22 ± 0.51
313.35 K, 20000 kPa	1201.24 ± 0.5
313.35 K, 25000 kPa	1217.24 ± 0.52
313.36 K, 30000 kPa	1231.65 ± 0.54
313.36 K, 40000 kPa	1256.89 ± 0.62
313.36 K, 80000 kPa	1330.76 ± 1.2
313.36 K, 90000 kPa	1345.06 ± 1.4
313.36 K, 99990 kPa	1358.3 ± 1.6
313.37 K, 50000 kPa	1278.66 ± 0.72
313.37 K, 60000 kPa	1297.92 ± 0.85
313.37 K, 69990 kPa	1315.13 ± 1.1
323.14 K, 1000 kPa	1074.03 ± 0.83
323.15 K, 3000 kPa	1090.3 ± 0.76
323.15 K, 5000 kPa	1104.41 ± 0.67
323.15 K, 10000 kPa	1133.63 ± 0.58
323.15 K, 15000 kPa	1157.19 ± 0.53
323.15 K, 20000 kPa	1177.23 ± 0.51
323.15 K, 25000 kPa	1194.71 ± 0.51
323.15 K, 30000 kPa	1210.33 ± 0.53
323.15 K, 40000 kPa	1237.43 ± 0.6
323.15 K, 50000 kPa	1260.55 ± 0.69
323.15 K, 60000 kPa	1280.78 ± 0.81
323.15 K, 69990 kPa	1299.16 ± 1
323.15 K, 80000 kPa	1315.46 ± 1.2
323.15 K, 90000 kPa	1330.39 ± 1.3
323.15 K, 100000 kPa	1344.16 ± 1.5
333.06 K, 3000 kPa	1051.57 ± 0.91
333.06 K, 5000 kPa	1068.99 ± 0.76
333.07 K, 10000 kPa	1103.45 ± 0.64
333.07 K, 15000 kPa	1130.26 ± 0.56
333.07 K, 20000 kPa	1152.47 ± 0.53
333.07 K, 25000 kPa	1171.67 ± 0.51
333.08 K, 30000 kPa	1188.58 ± 0.52
333.08 K, 40000 kPa	1217.68 ± 0.57
333.08 K, 50000 kPa	1242.22 ± 0.66
333.09 K, 60000 kPa	1263.59 ± 0.77
333.09 K, 70000 kPa	1282.87 ± 1
333.1 K, 79990 kPa	1299.88 ± 1.1
333.1 K, 89990 kPa	1315.41 ± 1.3
333.1 K, 99990 kPa	1329.71 ± 1.5
343.06 K, 3000 kPa	1007.98 ± 1.2
343.07 K, 5000 kPa	1030.29 ± 0.91
343.07 K, 10000 kPa	1071.6 ± 0.71
343.07 K, 15000 kPa	1102.25 ± 0.6
343.07 K, 20000 kPa	1127.03 ± 0.54
343.07 K, 25000 kPa	1148.05 ± 0.52
343.07 K, 30000 kPa	1166.47 ± 0.51
343.07 K, 40000 kPa	1197.69 ± 0.55
343.07 K, 50000 kPa	1223.79 ± 0.64
343.07 K, 60000 kPa	1246.3 ± 0.74
343.07 K, 70000 kPa	1266.4 ± 0.99
343.08 K, 79990 kPa	1284.18 ± 1.1
343.08 K, 90000 kPa	1300.35 ± 1.2
343.08 K, 100000 kPa	1315.2 ± 1.4
352.97 K, 3000 kPa	957.49 ± 1.6
352.97 K, 60000 kPa	1229.3 ± 0.71
352.97 K, 70000 kPa	1250.62 ± 0.97
352.97 K, 79990 kPa	1269.19 ± 1.1
352.97 K, 89990 kPa	1285.98 ± 1.2
352.97 K, 99990 kPa	1301.43 ± 1.4
352.98 K, 5000 kPa	987.78 ± 1.1
352.98 K, 15000 kPa	1073.64 ± 0.65
352.98 K, 20000 kPa	1101.36 ± 0.57
352.98 K, 25000 kPa	1124.45 ± 0.53
352.98 K, 30000 kPa	1144.41 ± 0.51
352.98 K, 40000 kPa	1177.85 ± 0.54
352.98 K, 50000 kPa	1205.56 ± 0.61
352.99 K, 10000 kPa	1038.43 ± 0.82
362.93 K, 3000 kPa	894.35 ± 2.5
362.93 K, 5000 kPa	939.3 ± 1.5
362.94 K, 10000 kPa	1003.24 ± 0.96
362.94 K, 15000 kPa	1044.15 ± 0.72
362.94 K, 20000 kPa	1075.24 ± 0.6
362.94 K, 25000 kPa	1100.62 ± 0.54
362.94 K, 30000 kPa	1122.31 ± 0.51
362.95 K, 40000 kPa	1158.16 ± 0.53
362.95 K, 50000 kPa	1187.53 ± 0.58
362.95 K, 60000 kPa	1212.48 ± 0.68
362.95 K, 70010 kPa	1234.72 ± 0.95
362.95 K, 80000 kPa	1254.07 ± 1
362.96 K, 90000 kPa	1271.47 ± 1.1
362.96 K, 99990 kPa	1287.46 ± 1.3
